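Step 1: Grow cells in 96-well plates. Step 2: Expose to compound for 48 hours at 5 concentrations. Step 3: Interpolate endpoints linearly; if unreached, use highest concentration. The concentration for 50% growth inhibition is given as GI50. Definition used: TGI = concentration required for complete inhibition of growth.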
How the values were obtained:
Assay in all cases: growth of human tumour cells (NCI), 48 h
NCI-H522 lung = tested on: NCI-H522 lung
HS 578T breast = tested on: HS 578T breast
SR leukemia = tested on: SR leukemia
ACHN renal = tested on: ACHN renal
PC-3 prostate = tested on: PC-3 prostate
SK-MEL-5 melanoma = tested on: SK-MEL-5 melanoma
IGROV1 ovarian = tested on: IGROV1 ovarian
SK-MEL-2 melanoma = tested on: SK-MEL-2 melanoma
UACC-62 melanoma = tested on: UACC-62 melanoma
NCI-H226 lung = tested on: NCI-H226 lung

Row | SMILES | GI50 (NCI-H522 lung) [µM] | TGI (NCI-H522 lung) [µM] | GI50 (HS 578T breast) [µM] | TGI (HS 578T breast) [µM] | GI50 (SR leukemia) [µM] | TGI (SR leukemia) [µM] | GI50 (ACHN renal) [µM] | TGI (ACHN renal) [µM] | GI50 (PC-3 prostate) [µM] | TGI (PC-3 prostate) [µM] | GI50 (SK-MEL-5 melanoma) [µM] | TGI (SK-MEL-5 melanoma) [µM] | GI50 (IGROV1 ovarian) [µM] | TGI (IGROV1 ovarian) [µM] | GI50 (SK-MEL-2 melanoma) [µM] | TGI (SK-MEL-2 melanoma) [µM] | GI50 (UACC-62 melanoma) [µM] | TGI (UACC-62 melanoma) [µM] | GI50 (NCI-H226 lung) [µM] | TGI (NCI-H226 lung) [µM]
1 | Cc1ccc2sc3c(NCCCNCCO)nc4ccccc4c3c(=O)c2c1 | 1.66 | 3.43 | 1.63 | 3.7 | 1.55 | 4.07 | 1.6 | 2.98 | 1.38 | 2.87 | 1.78 | 3.25 | 1.59 | 3.14 | 1.73 | 3.36 | 1.69 | 3.14 | 1.78 | 3.68
2 | O=C(/C=C\Sc1nccc(C(F)(F)F)n1)c1ccc(Br)cc1 | 15 | 33.2 | 40.5 | > 100 | 11.1 | 26.3 | 15.9 | 29.7 | 15.4 | 29.4 | 37.9 | > 100 | 16.8 | 35.8 | > 100 | > 100 | 23.6 | 60.7 | 26.9 | 87.8
3 | CCOC(=O)c1c(Cl)c2c(n1Cc1cc(OC)cc(OC)c1)-c1oncc1CCC2 | 0.0304 | 0.195 | 0.451 | > 100 | 0.121 | > 100 | 1.54 | > 100 | 0.293 | > 100 | 0.451 | > 100 | 0.317 | > 54.8 | 0.226 | 4.07 | 0.193 | > 100 | 6.84 | > 100
4 | CN(C)CC1CCn2c(c(C3=C(c4cn(C)c5ccccc45)C(=O)NC3=O)c3ccccc32)C1 (stereo not given) | 4.07 | 7.95 | 2.31 | 7.36 | 4.26 | 12.7 | 3.88 | 7.9 | 3.71 | 8.03 | 3.9 | 7.49 | 5.22 | 10.1 | 3.96 | 7.82 | 3.91 | 7.49 | 4.01 | 9.38
5 | CN(CCC(=O)O)S(=O)(=O)c1ccccc1 |  | > 100 |  | > 100 |  | > 100 |  | > 100 |  | > 100 |  | > 100 |  | > 100 |  | > 100 |  | > 100 |  | > 100
6 | CC(=O)OCC1OC(S[As](C)C)C(OC(C)=O)C1OC(C)=O (stereo not given) | 0.139 | 0.528 | 0.319 | 0.841 | 0.025 | 0.29 | 0.215 | 0.831 | 1.11 | 13.1 | 0.162 | 0.385 | 0.732 | 4.06 | 1.2 | 7.82 | 0.357 | 1.52 | 1.63 | 6.27
7 | COc1cccc2c1c1nc3cc(C)c(C)cc3nc1n2CCN(C)C | 2.39 | 8.65 | 1.8 | 6.99 | 0.452 | 8.7 | 0.433 | 10.3 | 1.73 | 11.6 | 1.64 | 3.01 | 1.76 | 10.7 | 1.85 | 4.39 | 1.7 | 3.37 | 1.63 | 6.45
8 | Cc1cc(C)nc(SC2=C(Nc3cccc(Cl)c3)C(=O)N(Cc3ccccc3)C2=O)n1 | > 170 | > 170 | > 170 | > 170 | > 170 | > 170 | > 170 | > 170 | > 170 | > 170 | > 170 | > 170 | > 170 | > 170 | > 170 | > 170 | 34.9 | > 170 | 0.729 | 9.43
9 | COc1ccc(F)cc1C(=O)c1cnc(NC2CCN(S(C)(=O)=O)CC2)nc1N | 4.3 | 14.7 | 3.93 | 17.8 | 0.885 | > 14.8 | 1.55 | > 21.4 | 2.79 | 18.1 | 3.12 | > 21.4 | 1.84 | > 13.6 | 3.48 | 9.76 | 2.75 | 8.95 | 2.56 | > 20.6
10 | COc1ccc2c(c1)Cc1c-2c(NN)nc2ccccc12 | 20.2 | 58.5 | 35.8 | > 100 | 9.94 | > 100 | 44.7 | > 100 | 19.8 | > 100 | 22 | 58.3 | 24.6 | > 100 | 33.1 | > 100 | 25 | > 100 | 64 | > 100

From PubChem BioAssay (NCI)
